Experimental data: ChEMBL document CHEMBL2202954, “The effect of PLC-γ2 inhibitors on the growth of human tumour cells” (2012)

Assays:
Format in all cases: functional
SK-MEL-5 = assay: Cytotoxicity against human SK-MEL-5 cells assessed as cellular growth at 10 uM by SRB assay
CAKI-1 = assay: Cytotoxicity against human Caki1 cells assessed as cellular growth at 10 uM by SRB assay
DU-145 = assay: Cytotoxicity against human DU145 cells assessed as cellular growth at 10 uM by SRB assay
NCI-H23 = assay: Cytotoxicity against human NCI-H23 cells assessed as cellular growth at 10 uM by SRB assay
EKVX = assay: Cytotoxicity against human EKVX cells assessed as cellular growth at 10 uM by SRB assay
M14 = assay: Cytotoxicity against human M14 cells assessed as cellular growth at 10 uM by SRB assay
SK-MEL-28 = assay: Cytotoxicity against human SK-MEL-28 cells assessed as cellular growth at 10 uM by SRB assay
MOLT-4 = assay: Cytotoxicity against human MOLT4 cells assessed as cellular growth at 10 uM by SRB assay
HCT-116 = assay: Cytotoxicity against human HCT116 cells assessed as cellular growth at 10 uM by SRB assay
SK-OV-3 = assay: Cytotoxicity against human SKOV3 cells assessed as cellular growth at 10 uM by SRB assay
HCC 2998 = assay: Cytotoxicity against human HCC2998 cells assessed as cellular growth at 10 uM by SRB assay
MDA-MB-231 = assay: Cytotoxicity against human MDA-MB-231 cells assessed as cellular growth at 10 uM by SRB assay
CCRF-CEM = assay: Cytotoxicity against human CCRF-CEM cells assessed as cellular growth at 10 uM by SRB assay
[1] = Cytotoxicity against human NCI-ADR-RES cells assessed as cellular growth at 10 uM by SRB assay
RXF 393 = assay: Cytotoxicity against human RXF393 cells assessed as cellular growth at 10 uM by SRB assay
MCF7 = assay: Cytotoxicity against human MCF7 cells assessed as cellular growth at 10 uM by SRB assay
T47D = assay: Cytotoxicity against human T47D cells assessed as cellular growth at 10 uM by SRB assay
SF-295 = assay: Cytotoxicity against human SF295 cells assessed as cellular growth at 10 uM by SRB assay
SF-539 = assay: Cytotoxicity against human SF539 cells assessed as cellular growth at 10 uM by SRB assay
Hs-578T = assay: Cytotoxicity against human Hs578T cells assessed as cellular growth at 10 uM by SRB assay

Structure (SMILES) | Activity (SK-MEL-5) [%] | Activity (CAKI-1) [%] | Activity (DU-145) [%] | Activity (NCI-H23) [%] | Activity (EKVX) [%] | Activity (M14) [%] | Activity (SK-MEL-28) [%] | Activity (MOLT-4) [%] | Activity (HCT-116) [%] | Activity (SK-OV-3) [%] | Activity (HCC 2998) [%] | Activity (MDA-MB-231) [%] | Activity (CCRF-CEM) [%] | Activity [1] [%] | Activity (RXF 393) [%] | Activity (MCF7) [%] | Activity (T47D) [%] | Activity (SF-295) [%] | Activity (SF-539) [%] | Activity (Hs-578T) [%]
COc1ccc2nc(NC(=O)c3ccc(F)cc3)sc2c1 | 89.97 | 79.13 | 105.68 | 85.96 | 79.56 | 106.56 | 110.86 | 87.45 | 95.31 | 104.34 | 87.56 | 116.29 | 91.13 | 89.25 | 110.56 | 70.13 | 76.48 | 54.56 | 97.47 | 114.71
O=C(Nc1nc2ccccc2s1)c1ccc(F)cc1 | 91.3 | 62.93 | 108.3 | 89.91 | 77.77 | 109.51 | 113.63 | 100.31 | 92.81 | 108.36 | 69.88 | 95.53 | 100.74 | 95.74 | 106.77 | 68.1 | 55.31 | 103.39 | 101.66 | 140.08
O=c1/c(=C/c2ccc(Cl)cc2Cl)sc2nc(-c3ccccc3)nn12 | 106.75 | 116.76 | 102.1 | 101.62 | 111.1 | 103.59 | 117.34 | 88.5 | 106.75 | 109.75 | 117.6 | 98.54 | 95.93 | 112.24 | 121.72 | 103.07 | 90.03 | 118.28 | 121.38 | 98.17
COc1cc(/C=c2/sc3nc4ccccc4n3c2=O)cc(I)c1O | 81.43 | 79.77 | 102.39 | 94.22 | 92.52 | 107.28 | 111.82 | 78.31 | 98.72 | 96.7 | 106.16 | 107.43 | 83.8 | 92.89 | 116.35 | 93.11 | 82.96 | 88.17 | 112.47 | 107.68
O=C1N=C(c2ccccc2)S/C1=C\c1ccc2c(c1)OCO2 | 96.34 | 101.66 | 102.97 | 114.7 | 98.04 | 111.64 | 106.02 | 109.24 | 104.4 | 98.47 | 118.49 | 104.95 | 90.34 | 107.06 | 115.74 | 101.6 | 94.58 | 97.51 | 95.81 | 94.3
Cc1ccc(C(=O)/C=C2/Nc3ccc(C)cc3OC2=O)cc1 | 100.21 | 96.63 | 118.59 | 99.9 | 92.88 | 106.88 | 118.66 | 83.44 | 110.04 | 115.37 | 102.74 | 88.3 | 77.12 | 108.28 | 112.41 | 96.32 | 104.44 | 132.37 | 108.44 | 122.96
Cc1ccc2c(c1)N/C(=C/C(=O)c1ccc(Cl)cc1)C(=O)O2 | 102.04 | 105.93 | 112.1 | 98.65 | 106.62 | 108.88 | 116.13 | 86.91 | 105.71 | 110.03 | 108.44 | 86.67 | 65.56 | 104 | 111.43 | 87.54 | 106.85 | 113.06 | 106.89 | 113.45
Oc1ccccc1-c1nc(-c2cccs2)no1 | 88.2 | 97.52 | 114.11 | 94.82 | 89.29 | 106.76 | 115.6 | 99.05 | 104.63 | 99.86 | 83.27 | 71.74 | 91.77 | 106.13 | 117.42 | 56.48 | 76.43 | 109.56 | 104.64 | 93.55
